Read-outs that look alike come from different tables or passages of the source. Where only a bound is given, the exact number is not on record here.

The target in this experiment is T1, IRAK4 (Homo sapiens, UniProt Q9NWZ3).
T1 construct: Degradation of IRAK4 in OCI-LY10 was quantitatively measured using Meso Scale Discovery technology; endogenous in cells; host or cells: OCI-LY10
T1 sequence (Q9NWZ3 1-460): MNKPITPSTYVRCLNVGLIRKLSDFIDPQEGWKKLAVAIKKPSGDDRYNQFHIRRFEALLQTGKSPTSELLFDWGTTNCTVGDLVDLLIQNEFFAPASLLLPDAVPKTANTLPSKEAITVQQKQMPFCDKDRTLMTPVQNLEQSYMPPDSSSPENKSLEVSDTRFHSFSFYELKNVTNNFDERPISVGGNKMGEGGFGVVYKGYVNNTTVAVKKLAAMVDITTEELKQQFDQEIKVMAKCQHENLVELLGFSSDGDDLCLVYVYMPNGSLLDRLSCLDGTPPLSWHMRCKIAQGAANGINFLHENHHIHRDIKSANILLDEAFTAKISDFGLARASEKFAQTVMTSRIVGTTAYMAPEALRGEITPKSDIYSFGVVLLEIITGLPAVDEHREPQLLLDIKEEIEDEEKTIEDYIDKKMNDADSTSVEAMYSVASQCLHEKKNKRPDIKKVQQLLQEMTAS
As to the kind of experiment: IRAK4 MSD Degradation in OCI-LY10. It is filed as cell-based. The settings on record: OCI-LY10 cells, MSD. The method in brief:
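OCI-LY10 cells exposed to 8-point 1:3 compound series (top 1 to 10 μM) for 4 to 24 h at 37 °C, 5% CO2. Lysate IRAK4 quantified by MSD sandwich immunoassay. DC50 from three-parameter logistic fit, binned A (<0.01 μM) to D (>0.2 μM or not tested).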

[1] abbreviates: 4 hrs incubation, read-out: IRAK4 degradation in OCI-LY10 at 4 hrs: DC50.
The mark [2] stands for this setting: 24 hrs incubation, read-out: IRAK4 degradation in OCI-LY10 at 24 hrs: DC50.

In general, DC50 refers to the concentration at which degradation of the target reaches its halfway point. For `Cn1c(=O)n(C2CCC(=O)NC2=O)c2cccc(CCCOC3CCN(C[C@H]4CC[C@H](n5cc(NC(=O)c6cccc(C(F)(F)F)n6)c(C(F)F)n5)CC4)CC3)c21` (stereo partly shown) [I-212], the DC50 was more than 200 nM under setting [1] and more than 200 nM under setting [2].

Consider `Cn1c(=O)n(C2CCC(=O)NC2=O)c2cccc(CCCN3CCN(C[C@H]4CC[C@H](n5cc(NC(=O)c6cccc(C(F)(F)F)n6)c(C(F)F)n5)CC4)CC3)c21` (stereo partly shown) [I-213], for which the DC50 runs as follows: under setting [1], more than 200 nM; under setting [2], more than 200 nM.

In the case of `COc1nn([C@H]2CC[C@H](CN3CC4CC3CN4c3cccc4c3n(C)c(=O)n4C3CCC(=O)NC3=O)CC2)cc1NC(=O)c1cnn2cc(N(C)C)cnc12` (stereo partly shown) [I-214], the DC50 under setting [1] was more than 200 nM and the DC50 under setting [2] is more than 200 nM.

Consider `CN(C)c1cnc2c(C(=O)Nc3cn([C@H]4CC[C@H](CN5CCN(c6cccc7c6n(C)c(=O)n7C6CCC(=O)NC6=O)CC5)CC4)nc3F)cnn2c1` (stereo partly shown) [I-215], for which the DC50 by setting is: under setting [1], more than 200 nM; under setting [2], more than 200 nM.

For the compound `Cc1nn([C@H]2CC[C@H](CN3CCN(c4cccc5c4n(C)c(=O)n5C4CCC(=O)NC4=O)CC3)CC2)cc1NC(=O)c1cnn2cc(N(C)C)cnc12` (stereo partly shown) [I-216], the DC50 is, setting by setting: under setting [1], more than 200 nM; under setting [2], more than 200 nM.

In the case of `Cc1nn([C@H]2CC[C@H](CN3CCN(c4ccc5c(c4)n(C)c(=O)n5C4CCC(=O)NC4=O)CC3)CC2)cc1NC(=O)c1cnn2cc(N(C)C)cnc12` (stereo partly shown) [I-217], the DC50 is, setting by setting: under setting [1], more than 200 nM; under setting [2], more than 200 nM.

Regarding `O=C1CCN(c2ccc(C#CCOC3CCN(C[C@H]4CC[C@H](n5cc(NC(=O)c6cnn7ccc(N8C[C@H]9C[C@@H]8CO9)nc67)c(C(F)F)n5)CC4)CC3)cc2)C(=O)N1` [I-218], the DC50 under setting [1] was 100 to 200 nM and the DC50 under setting [2] was more than 200 nM.

Regarding `Cn1c(=O)n(C2CCC(=O)NC2=O)c2cccc(C#CCN3CCN(C[C@H]4CC[C@H](n5cc(NC(=O)c6cnn7ccc(C(C)(C)C)nc67)c(C(F)F)n5)CC4)CC3)c21` (stereo partly shown) [I-219], the DC50 was more than 200 nM under setting [1] and more than 200 nM under setting [2].

Regarding `COC(C)(C)c1ccn2ncc(C(=O)Nc3cn([C@H]4CC[C@H](CN5CCN(CC#Cc6cccc7c6n(C)c(=O)n7C6CCC(=O)NC6=O)CC5)CC4)nc3C(F)F)c2n1` (stereo partly shown) [I-220], the DC50 is, setting by setting: under setting [1], more than 200 nM; under setting [2], more than 200 nM.

As to `Cn1c(=O)n(C2CCC(=O)NC2=O)c2cccc(C#CCN3CCN(C[C@H]4CC[C@H](n5cc(NC(=O)c6cnn7ccc(N8CCCC8(C)C)nc67)c(C(F)F)n5)CC4)CC3)c21` (stereo partly shown) [I-221], the DC50 is more than 200 nM under setting [1] and 10 to 100 nM under setting [2].

On to `Cn1c(=O)n(C2CCC(=O)NC2=O)c2cccc(C#CCN3CCN(C[C@H]4CC[C@H](n5cc(NC(=O)c6cnn7ccc(N8CCCC89CC9)nc67)c(C(F)F)n5)CC4)CC3)c21` (stereo partly shown) [I-222], for which the DC50 under setting [1] was more than 200 nM and the 50% degradation concentration (DC50) under setting [2] is 10 to 100 nM.

In the case of `Cn1c(=O)n(C2CCC(=O)NC2=O)c2cccc(C#CCN3CCN(C[C@H]4CC[C@H](n5cc(NC(=O)c6cnn7ccc(N8CCC(C)(C)C8)nc67)c(C(F)F)n5)CC4)CC3)c21` (stereo partly shown) [I-223], the DC50 is more than 200 nM under setting [1] and 10 to 100 nM under setting [2].

Consider `Cn1c(=O)n(C2CCC(=O)NC2=O)c2cccc(C#CCN3CCN(C[C@H]4CC[C@H](n5cc(NC(=O)c6cnn7ccc(N8CCC9(CC9)C8)nc67)c(C(F)F)n5)CC4)CC3)c21` (stereo partly shown) [I-224], for which the DC50 under setting [1] was more than 200 nM and the DC50 under setting [2] was in the range of 10 to 100 nM.

As to `Cn1c(=O)n(C2CCC(=O)NC2=O)c2cccc(C#CCN3CCN(C[C@H]4CC[C@H](n5cc(NC(=O)c6cnn7ccc(N8CC(C)(C)C8)nc67)c(C(F)F)n5)CC4)CC3)c21` (stereo partly shown) [I-225], the DC50 was more than 200 nM under setting [1] and less than 10 nM under setting [2].

For `Cn1c(=O)n(C2CCC(=O)NC2=O)c2cccc(C#CCN3CCN(C[C@H]4CC[C@H](n5cc(NC(=O)c6cnn7ccc(N8CC9(CC9)C8)nc67)c(C(F)F)n5)CC4)CC3)c21` (stereo partly shown) [I-226], the DC50 reads like this: under setting [1], more than 200 nM; under setting [2], less than 10 nM.

As to `Cn1c(=O)n(C2CCC(=O)NC2=O)c2cccc(C#CCN3CCN(C[C@H]4CC[C@H](n5cc(NC(=O)c6cnn7ccc(N8CCC(C)(C)CC8)nc67)c(C(F)F)n5)CC4)CC3)c21` (stereo partly shown) [I-227], the DC50 was more than 200 nM under setting [1] and 10 to 100 nM under setting [2].

With `Cn1c(=O)n(C2CCC(=O)NC2=O)c2cccc(C#CCN3CCN(C[C@H]4CC[C@H](n5cc(NC(=O)c6cnn7ccc(N8CCC9(CC8)CC9)nc67)c(C(F)F)n5)CC4)CC3)c21` (stereo partly shown) [I-228], the half-maximal degradation concentration (DC50) is more than 200 nM under setting [1] and less than 10 nM under setting [2].

Turning to `Cn1c(=O)n(C2CCC(=O)NC2=O)c2cccc(C#CCN3CCN(C[C@H]4CC[C@H](n5cc(NC(=O)c6cnn7ccc(N8CCCC(C)(C)C8)nc67)c(C(F)F)n5)CC4)CC3)c21` (stereo partly shown) [I-229], the DC50 reads like this: under setting [1], more than 200 nM; under setting [2], 10 to 100 nM.

Consider `Cn1c(=O)n(C2CCC(=O)NC2=O)c2cccc(C#CCN3CCN(C[C@H]4CC[C@H](n5cc(NC(=O)c6cnn7ccc(N8CCCCC8(C)C)nc67)c(C(F)F)n5)CC4)CC3)c21` (stereo partly shown) [I-230], for which the DC50 reads like this: under setting [1], more than 200 nM; under setting [2], 10 to 100 nM.

As to `Cn1c(=O)n(C2CCC(=O)NC2=O)c2cccc(C#CCOC3CCN(C[C@H]4CC[C@H](n5cc(NC(=O)c6ccn7ccc(N8C[C@H]9C[C@@H]8CO9)nc67)c(C(F)F)n5)CC4)CC3)c21` (stereo partly shown) [I-231], the DC50 is more than 200 nM under setting [1] and more than 200 nM under setting [2].

Take `Cn1c(=O)n(C2CCC(=O)NC2=O)c2cccc(C#CCOC3CCN(C[C@H]4CC[C@H](n5cc(NC(=O)c6ccn7ccc(N8C[C@@H]9C[C@H]8CO9)nc67)c(C(F)F)n5)CC4)CC3)c21` (stereo partly shown) [I-232]: the DC50 by setting is: under setting [1], more than 200 nM; under setting [2], more than 200 nM.

As to `Cn1c(=O)n(C2CCC(=O)NC2=O)c2cccc(C#CCN3CCN(C[C@H]4CC[C@H](n5cc(NC(=O)c6cnn7cc(N8CCCCC8)cnc67)c(C(F)F)n5)CC4)CC3)c21` (stereo partly shown) [I-233], the DC50 was more than 200 nM under setting [1] and more than 200 nM under setting [2].

Consider `CN(C)c1cnc2c(C(=O)Nc3cn([C@H]4CC[C@H](CN5CCN(CC#Cc6cccc7c6n(C)c(=O)n7C6CCC(=O)NC6=O)CC5)CC4)nc3C(F)F)cnn2c1` (stereo partly shown) [I-234], for which the DC50 was more than 200 nM under setting [1] and 100 to 200 nM under setting [2].

As to `Cn1c(=O)n(C2CCC(=O)NC2=O)c2cccc(C#CCN3CCN(C[C@H]4CC[C@H](n5cc(NC(=O)c6cnn7cccnc67)c(C(F)F)n5)CC4)CC3)c21` (stereo partly shown) [I-235], the DC50 is more than 200 nM under setting [1] and 10 to 100 nM under setting [2].

Turning to `Cn1c(=O)n(C2CCC(=O)NC2=O)c2cccc(N3CCC4(CCN(C[C@H]5CC[C@H](n6cc(NC(=O)c7cnn8cccnc78)c(C(F)F)n6)CC5)CC4)CC3)c21` (stereo partly shown) [I-236], the DC50 under setting [1] is more than 200 nM and the DC50 under setting [2] was less than 10 nM.

Consider `Cn1c(=O)n(C2CCC(=O)NC2=O)c2cccc(N3CCN(CC[C@H]4CC[C@H](n5cc(NC(=O)c6cnn7cccnc67)c(C(F)F)n5)CC4)CC3)c21` (stereo partly shown) [I-237], for which the DC50 by setting is: under setting [1], more than 200 nM; under setting [2], 10 to 100 nM.

As for `Cn1c(=O)n(C2CCC(=O)NC2=O)c2cccc(CN3CCN(C[C@H]4CC[C@H](n5cc(NC(=O)c6cnn7cccnc67)c(C(F)F)n5)CC4)CC3)c21` (stereo partly shown) [I-238], the half-maximal degradation concentration (DC50) runs as follows: under setting [1], more than 200 nM; under setting [2], more than 200 nM.

Consider `Cn1c(=O)n(C2CCC(=O)NC2=O)c2cccc(N3CCC(CO[C@H]4CC[C@H](n5cc(NC(=O)c6cnn7cccnc67)c(C(F)F)n5)CC4)CC3)c21` (stereo partly shown) [I-239], for which the DC50 is, setting by setting: under setting [1], more than 200 nM; under setting [2], more than 200 nM.

For the compound `Cn1c(=O)n(C2CCC(=O)NC2=O)c2cccc(N3CCC(OC[C@H]4CC[C@H](n5cc(NC(=O)c6cnn7cccnc67)c(C(F)F)n5)CC4)CC3)c21` (stereo partly shown) [I-240], the DC50 reads like this: under setting [1], more than 200 nM; under setting [2], more than 200 nM.

Turning to `C[C@@H]([C@H]1CC[C@H](n2cc(NC(=O)c3cnn4cccnc34)c(C(F)F)n2)CC1)N(C)C1CCN(c2cccc3c2n(C)c(=O)n3C2CCC(=O)NC2=O)CC1` (stereo partly shown) [I-241], the DC50 is more than 200 nM under setting [1] and 100 to 200 nM under setting [2].

For `CN(C1CCN(c2cccc3c2n(C)c(=O)n3C2CCC(=O)NC2=O)CC1)[C@@H](C#N)[C@H]1CC[C@H](n2cc(NC(=O)c3cnn4cccnc34)c(C(F)F)n2)CC1` (stereo partly shown) [I-242], the 50% degradation concentration (DC50) reads like this: under setting [1], more than 200 nM; under setting [2], more than 200 nM.

Turning to `CC(C)Oc1ccn2ncc(C(=O)Nc3cn([C@H]4CC[C@H](CN5CCN(CC#Cc6cccc7c6n(C)c(=O)n7C6CCC(=O)NC6=O)CC5)CC4)nc3C(F)F)c2n1` (stereo partly shown) [I-243], the half-maximal degradation concentration (DC50) is more than 200 nM under setting [1] and more than 200 nM under setting [2].

Turning to `Cn1c(=O)n(C2CCC(=O)NC2=O)c2cccc(C#CCN3CCN(C[C@H]4CC[C@H](n5cc(NC(=O)c6cnn7ccc(OC8CCC8)nc67)c(C(F)F)n5)CC4)CC3)c21` (stereo partly shown) [I-244], the DC50 by setting is: under setting [1], more than 200 nM; under setting [2], more than 200 nM.

For the compound `Cn1c(=O)n(C2CCC(=O)NC2=O)c2cccc(C#CCN3CCN(C[C@H]4CC[C@H](n5cc(NC(=O)c6cnn7ccc(OC8CCCC8)nc67)c(C(F)F)n5)CC4)CC3)c21` (stereo partly shown) [I-245], the DC50 is, setting by setting: under setting [1], more than 200 nM; under setting [2], 10 to 100 nM.

For the compound `Cn1c(=O)n(C2CCC(=O)NC2=O)c2cccc(C#CCN3CCN(C[C@H]4CC[C@H](n5cc(NC(=O)c6cnn7ccc(OC8CCCCC8)nc67)c(C(F)F)n5)CC4)CC3)c21` (stereo partly shown) [I-246], the DC50 is more than 200 nM under setting [1] and more than 200 nM under setting [2].

The values are drawn from patent publication US12091411B2, “IRAK degraders and uses thereof” (Kymera Therapeutics, Inc., priority 2022, dated 2024).
